# Experimental data from PMC12157728, “Green and Efficient Synthetic Protocol for 1,3,5-Triazine Derivatives with Anticancer Potential Against Colorectal Cancer” (Molecules, 2025).
# Like-named read-outs stand apart in the source and are kept apart here.
# Assays:
# SW620 = test: MTS cytotoxicity assay, SW620 colorectal cancer cells; type: cell-based, human; settings: for IC50: Homo sapiens, SW-620, MTS, 24 h incubation, n = 3, >100 = no detectable effect at highest concentration, * = IC50 could not be determined (high variability or no consistent dose-response), read-out: Cytotoxicity IC50 ± SD, SW620
# Method: (§1) The human colorectal cancer cell lines SW620, SW480 were obtained from the American Type Culture Collection (ATCC). Both cell lines were cultured in Dulbecco’s Modified Eagle Medium (DMEM) (Capricorn Scientific GmbH, Manassas, USA), which was supplemented with 10% fetal bovine serum (FBS) and 50 µg/mL of gentamicin. Cells were incubated at 37 °C in a humidified atmosphere containing 5% CO₂. The cultures were passaged approximately every three days upon reaching confluence using a 0.25% trypsin-EDTA solution, at a ratio of approximately 1:3 to 1:4. For the MTS assay, cells were seeded at a density of 10,000 cells per well in 96-well plates. After 24 h, compounds were added at five concentrations ([…]), and cells were incubated for an additional 24 h. Cytotoxicity was assessed using the CellTiter 96® AQueous One Solution Cell Proliferation Assay (Promega), following the manufacturer’s instructions. Absorbance was measured at 490 nm using a microplate reader.
# (§2) The IC₅₀ values were determined relative to the untreated control cells (without test compounds). All experiments were performed in triplicate (n = 3). Compounds for which IC₅₀ values could not be reliably determined were excluded from quantitative analysis. […] Such compounds are reported as ‘>100µM’ or ‘>100µM*’, respectively, in the results.
# SW480 = test: MTS cytotoxicity assay, SW480 colorectal cancer cells; type: cell-based, human; settings: for IC50: MTS, 24 h incubation, n = 3, >100 = no detectable effect at highest concentration, * = IC50 could not be determined (high variability or no consistent dose-response), read-out: Cytotoxicity IC50 ± SD, SW480
# Method: as §1, §2
# [1] = Phospholipid affinity by IAM-HPLC (IAM.PC.DD2 column); type: physicochemical; settings: pH 7.4, phospholipidosis threshold >50
# Text: (§3) All chromatographic experiments adhered to the protocols established by Valko and colleagues, which were implemented in our laboratory. Essentially, biochromatography facilitated the assessment of lipophilicity and phospholipid affinity, represented as Chromatographic Hydrophobicity Index (CHI) values, through a gradient elution experiment, comparing results with model substances. The Prominence-1 LC-2030C 3D HPLC system, operated via LabSolution software (v6.81, Kyoto, Japan), was utilized for all chromatographic analyses. Throughout the research, distinct chromatographic columns were employed: IAM.PC.DD2 (10 × 4.6 mm × 10.0 µm with a guard column; Regis Technologies; USA) and C18 Hypersil GOLD^TM (100 mm × 4.6 mm; 5.0 µm with a guard column; Thermo Scientific, Waltham, MA, USA). Each column was paired with guard columns featuring the same stationary phases as the main column. Mobile phase A consisted of a water solution of 50 mM ammonium acetate (VWR International, Leuven, Belgium), adjusted to physiological pH 7.4 using concentrated ammonia solution (Avantor Performance Materials Poland S.A., Gliwice, Poland). The mobile phase was prepared with ultrapure water from a Milli-Q water purification system (Merck Millipore, Darmstadt, Germany), achieving a resistivity of 18.2 MΩ. For phospholipid binding assessments, mobile phase B was HPLC grade acetonitrile (Chempur, Piekary Śląskie, Poland), with a linear gradient from 0 to 85% B over 5.25 min, then maintained at 85% ACN for 0.5 min. The mobile phase was delivered at a flow rate of 1.5 mL/min, with the IAM.PC.DD2 column temperature held steady at 30 °C. For lipophilicity evaluations, the solvents and flow rate mirrored those used in IAM chromatography. The C18 Hypersil GOLD^TM column was kept at 40 °C. Similarly, a linear gradient was applied from 0 to 5.25 min, but, in this instance, it ranged from 2 to 98% ACN, with the maximum phase B concentration sustained for 2.5 min. Dimethyl sulfoxide (Avantor Performance Materials Poland S.A., Poland) was employed to dissolve the target solutes, forming a solution with a concentration of 200 µg/mL. Detection occurred in the UV region at a wavelength of 190–300 nm. The injection volume was 5 μL, and each compound was analyzed in duplicate, with retention time variation below 0.5%. Retention times for the studied molecules and reference standards are detailed in the Supplementary Material, Tables S1 and S2.
# [2] = Lipophilicity by gradient RP-HPLC (C18, pH 7.4): CHI, chrom logD, PFI; type: physicochemical; design: key to PFI (Property Forecast Index): PFI = Chrom logD7.4 + number of aromatic rings; settings: for chromatographic logD: C18 Hypersil GOLD reversed-phase HPLC column, pH 7.4, C18 column; for chromatographic logD / chrom logD (RP-HPLC): pH 7.4, Chrom logD = 0.0525 × CHI − 1.467; for chrom logD (RP-HPLC): C18 column; for CHI C18: C18 at pH 7.4; for PFI (Property Forecast Index): PFI = Chrom logD7.4 + #Ar, threshold 7
# Text: as §3
# Experimentally determined CHI values were converted to chrom logD using the following equation [53]:Chrom logD = 0.0525 × CHI − 1.467(1)
# In addition, the Property Forecast Index (PFI), the sum of the number of aromatic rings(#Ar), and a lipophilicity measure are used to reflect the principle of simultaneous minimization of lipophilicity and aromaticity, which supports the selection of oral clinical candidates in GKS [47].PFI = Chrom logD7.4 + #Ar(2)
SMILES,chromatographic logD [2],chrom logD (RP-HPLC) [2],CHI C18 [2],PFI (Property Forecast Index) [2],IC50 (SW620) [µM],IC50 (SW480; Homo sapiens) [µM],"Cytotoxic activity in words, SW620 (SW620)",CHI IAM (IAM-HPLC) [1],"Cytotoxic activity in words, SW480 (SW480)",IC50 (SW480) [µM]
"O=c1[nH]cc(F)c(=O)[nH]1 [5-fluorouracil, reference compound]",–,–,–,–,21.7 ± 2.75,15.5 ± 7.83,–,–,–,–
"Cl.Clc1ccccc1Nc1nc(NCc2ccccc2)nc(N2CCOCC2)n1 [Compound 5, N^2-benzyl-N^4-(2-chlorophenyl)-6-morpholino-1,3,5-triazine-2,4-diamine hydrochloride]",3.95,3.947,103.1,6.95,32.8 ± 23.4,43.1,–,46.45,–,43.4 ± 12.2
"Cl.Clc1ccccc1Nc1nc(NCCCc2ccccc2)nc(N2CCOCC2)n1 [Compound 6, N^2-(2-chlorophenyl)-6-morpholino-N^4-(3-phenylpropyl)-1,3,5-triazine-2,4-diamine hydrochloride]",4.71,4.706,117.6,7.71,> 100,> 100,limited cytotoxic potential,51.63,limited cytotoxic potential,–
"Cl.Fc1ccc(N2CCN(CCNc3nc(Nc4ccccc4Cl)nc(N4CCOCC4)n3)CC2)cc1 [Compound 7, N^2-(2-chlorophenyl)-N^4-(2-(4-(4-fluorophenyl)piperazin-1-yl)ethyl)-6-morpholino-1,3,5-triazine-2,4-diamine hydrochloride]",4.44,4.443,112.6,7.44,–,> 100,limited cytotoxic potential,49.59,limited cytotoxic potential,–
"Cl.Clc1ccccc1Nc1nc(N2CCOCC2)nc(N2CCN(c3ccccc3)CC2)n1 [Compound 8, N-(2-chlorophenyl)-4-morpholino-6-(4-phenylpiperazin-1-yl)-1,3,5-triazin-2-amine hydrochloride]",4.15,4.148,107,7.15,–,20.6 ± 24.9,–,47.79,–,–
"Cl.Clc1ccccc1Nc1nc(N2CCOCC2)nc(N2CCN(c3nsc4ccccc34)CC2)n1 [Compound 9, 4-(4-(benzo[d]isothiazol-3-yl)piperazin-1-yl)-N-(2-chlorophenyl)-6-morpholino-1,3,5-triazin-2-amine hydrochloride]",4.23,4.226,108.4,7.23,22.1 ± 17.3,> 100,some activity,48.02,inactive,–
"Cl.Clc1ccccc1Nc1nc(NCCOc2ccccc2)nc(N2CCOCC2)n1 [Compound 11, N^2-(2-chlorophenyl)-6-morpholino-N^4-(2-phenoxyethyl)-1,3,5-triazine-2,4-diamine hydrochloride]",4.01,4.012,104.4,7.01,5.85 ± 14.3,–,–,45.92,–,–

# Continued, in another order:
chromatographic logD [2],chrom logD (RP-HPLC) [2],CHI C18 [2],PFI (Property Forecast Index) [2],SMILES,IC50 (SW620) [µM],IC50 (SW480; Homo sapiens) [µM],"Cytotoxic activity in words, SW620 (SW620)",CHI IAM (IAM-HPLC) [1],"Cytotoxic activity in words, SW480 (SW480)",IC50 (SW480) [µM]
3.95,3.947,–,–,"Cl.Clc1ccccc1Nc1nc(NCCc2ccccc2)nc(N2CCOCC2)n1 [Compound 3, N^2-(2-chlorophenyl)-6-morpholino-N^4-phenethyl-1,3,5-triazine-2,4-diamine hydrochloride]",> 100,> 100,limited cytotoxic potential,55.97,limited cytotoxic potential,–
4.1,4.098,106,7.10,"Cl.Clc1ccccc1Nc1nc(Nc2ccccc2)nc(N2CCOCC2)n1 [Compound 4, N^2-(2-chlorophenyl)-6-morpholino-N^4-phenyl-1,3,5-triazine-2,4-diamine hydrochloride]",36.1 ± 46.5,> 100,–,46.34,–,–
3.94,3.936,102.9,6.94,"Cl.Clc1ccccc1Nc1nc(NCCNc2ccccc2)nc(N2CCOCC2)n1 [Compound 10, N^2-(2-chlorophenyl)-6-morpholino-N^4-(2-(phenylamino)ethyl)-1,3,5-triazine-2,4-diamine hydrochloride]",–,> 100,limited cytotoxic potential,44.55,limited cytotoxic potential,–
